Measurements reported in patent publication US20040234586A1, “Compositions and methods for enhancing nucleic acid transfer into cells” (priority 2001, published 2004).

Test system: Rat1 fibroblast cells
Assay: Transfection efficiency with pCMV-LacZ DNA, β-galactosidase activity of cell lysate (ONPG assay)
Format: cell-based, rat
Conditions: for transfection efficiency alone or in combination with PEI, compared with PEI alone / transfection efficiency when combined to PEI as compared to PEI alone: PEI N/P=10; for transfection efficiency alone or in combination with PEI, compared with PEI alone: lipid 2 mg/ml; for transfection efficiency when combined to PEI as compared to PEI alone: 0.25 to 7.5 μl lipid per ug DNA
Method: Transfection complexes were prepared as described by Boussif et al. (Boussif et al., 1995).
Lipid was diluted in 100 μl of growth media without serum and antibiotics. The solutions were immediately homogenized and left at room temperature for 5-10 min. […] The combined material was vortexed and incubated at room temperature for 20 min before addition to the cells.
Rat1 fibroblast cells were maintained in modified Eagle medium (MEM) (Life Technologies) and VSMC cells were maintained in Dulbecco's modified Eagle medium (DMEM) (Life Technologies). Both cell lines were cultured in media containing 10% heat inactivated calf serum (Life Technologies), 1% penicillin-streptomycin, and L-glutamine in 10 cm tissue culture flasks at 37° C. in a humidified 5% CO2 atmosphere. Cells were grown to 80% confluency, detached with trypsin-EDTA and replated in 2 new flasks 18-24 h before transfection. Two to three hours before transfections, cells were again detached, and seeded at a density of 5×10^4 cells per well in 24-multiwell tissue culture plates.
At the time of transfection, cells were supplemented with 200-400 μl of fresh complete media containing 10% calf serum and antibiotics unless otherwise specified. Transfection solution was added to each well and the plates were incubated at 37° C. in a humidified atmosphere containing 5% CO2. After 6 h of transfection, the transfecting solution was removed, cells were washed once with appropriate cell culture medium and then covered with 1 ml of the same medium. Cells were maintained for an additional 36-48 h.
Following transfections with pCMV-LacZ DNA (36-48 h later), cells were washed twice with ice-cold 0.1 M phosphate buffered saline (PBS) and lysed with 250 μl lysis buffer (10 mM Tris-HCl pH 7.5, 1 mM EDTA, 100 mM NaCl, 5 mM MgCl2 and 1% Nonidet P40™ (Boehringer Mannheim)). Lysates were centrifuged 15 000×g at 4° C. for 5 min. The supernatant was collected and its protein concentration was determined using the BCA protein assay kit (PIERCE) using the microwell protocol according to the manufacturer's specifications. β-galactosidase assay was performed as described by Eustice et al. (Eustice et al., 1991) Briefly, β-galactosidase activity was measured in 240 μl assay mixture containing 80 mM sodium phosphate buffer, pH 7.3, 102 mM 2-mercaptoethanol, 9.0 mM MgCl2 and 8.0 mM ONPG (o-nitrophenyl-β-D-galactopyranoside, SIGMA). Samples, (1-40 μl) of each lysate were assayed in the reaction mixture at 37° C. for 30 min in 96-well plates. Absorbance was measured at 405 nm. E. coli β-galactosidase (Roche) was used to generate a standard curve.

Compound	transfection efficiency alone or in combination with PEI, compared with PEI alone (1 μg DNA)	transfection efficiency when combined to PEI as compared to PEI alone (1 μg DNA)	also measured
CCCCCCCC/C=C\CCCCCCCC(=O)OCC(CN(C)C)OC(=O)CCCCCCC/C=C\CCCCCCCC (stereo not drawn) [1,2-dioleoyl-3-dimethylammonium-propane]	did not display, alone or in combination with PEI, transfection efficiencies that were better or even equal to that obtained with PEI alone	–	–
CCCCCCCC/C=C\CCCCCCCC(=O)OCC(C[N+](C)(C)C)OC(=O)CCCCCCC/C=C\CCCCCCCC (stereo not drawn) [1,2-dioleoyl-3-trimethylammonium-propane]	did not display, alone or in combination with PEI, transfection efficiencies that were better or even equal to that obtained with PEI alone	–	–
CCCCCCCC/C=C\CCCCCCCC(=O)OC[C@@H](COP(=O)(OCC)OCC[N+](C)(C)C)OC(=O)CCCCCCC/C=C\CCCCCCCC (stereo partly drawn) [1,2-dioleoyl-sn-glycero-3-ethylphosphocholine]	did not display, alone or in combination with PEI, transfection efficiencies that were better or even equal to that obtained with PEI alone	–	–
CCCCCCCC/C=C\CCCCCCCC(=O)OC[C@H](COP(=O)([O-])OCC[N+](C)(C)C)OC(=O)CCCCCCC/C=C\CCCCCCCC [DOPC, 1,2-Dioleoly-sn-Glycero-3-Phosphocholine]	–	enhance transfection efficiency	–
CCCCCCCC/C=C\CCCCCCCC(=O)OC[C@H](COP(=O)(O)OCCN)OC(=O)CCCCCCC/C=C\CCCCCCCC [DOPE, 1,2-Dioleoyl-sn-Glycero-3-Phosphoethanolamine]	–	enhance transfection efficiency	β-galactosidase activity when combined to DNA alone (0.25 to 7.5 μl per ug DNA, without PEI): no β-galactosidase activity; increase of transfection efficiency over PEI alone (combined with PEI (N/P=10), 1 μg DNA): ≤ 26 fold
CC(C)CCCC(C)CCCC(C)CCCC(C)CC(=O)OC[C@H](COP(=O)(O)OCCN)OC(=O)CC(C)CCCC(C)CCCC(C)CCCC(C)C (stereo partly drawn) [DPPE, 1,2-Diphytanoyl-sn-Glycero-3-Phosphoethanolamine]	–	enhance transfection efficiency	–
L-α-phosphatidylcholine	did not display, alone or in combination with PEI, transfection efficiencies that were better or even equal to that obtained with PEI alone	–	–
